Source: patent US11396497B2, “Proteasome inhibitors” (New Mexico Tech University Research Park Corporation, priority 2018, dated 2022)
Like-named read-outs stand apart in the source and are kept apart here.

Key:
[1] = target: T1, immunoproteasome iβ5 subunit (Homo sapiens, UniProt P20618+P28062); assay: Subunit selectivity, purified immunoproteasome iβ5; assay type: biochemical
T1 construct: purchased Enzo Life Sciences
Experimental: (§1) The compounds were diluted with lysis buffer; 10 μL of the compound-containing solution was added to the test wells at ten times the final concentration. […] The results are reported as the average of at least 3 technical replicates of IC50 values for proteasome inhibition.
(§2) Values and standard deviations were calculated from an assay performed in biological triplicate.

[2] = target: T2, yeast proteasome yβ2 subunit (Saccharomyces cerevisiae, UniProt P25043+P25451); assay: Subunit selectivity, purified yeast proteasome yβ2; assay type: biochemical; settings: 8 μg/mL purified yCP; ± SD; read-out: yβ2 IC50
T2 construct: measured using 8 μg/mL of purified yCP or iCP
Experimental: as §1, §2

RPMI 8226 cells = assay: MTT assay cytotoxicity RPMI 8226; settings: Homo sapiens, RPMI-8226, 48 h, read-out: Cytotoxicity RPMI 8226 IC50
Experimental: (§4) The cells were incubated at 37° C. in a humidified atmosphere with 5% CO2.
(§5) 100 μL of cells were added to each well of a 96 well microtiter plate at a concentration of 4×10^4 cells/mL and incubated overnight to allow proper adhesion. (RPMI 8226 cells were plated at 4×10^5 cells/mL). The cells were treated with the panel of test compounds at a series of concentrations, along with vehicle control DMSO and untreated cells as controls. After 48 h incubation, 20 μL of MTT reagent (3-(4,5-dimethylthiazol-2-yl)-2,5-diphenyltetrazolium bromide) in PBS (5 mg/mL) was added to each well of the plates. The plate was incubated for 2 h at 37° C. For adherent cell lines, the media was removed from each well of the plate and the resulting formazan crystals dissolved in 100 μL of DMSO. For RPMI 8226 cells, 200 ul of DMF/SDS mix (50% DMF. 10% w/v SDS pH<4) was used to solubilize the formazan crystals. Optical density (OD) at 490 nm was measured using a microplate reader. Cells treated with 1 μM phenyl arsine oxide (PAO) served as a positive cell-killing control. Technical replicates of these assays were performed in biological quadruplicate, and the three best values were used for analysis in order to eliminate outliers. Data presented are the average IC50 value calculated from at least 3 technical replicates with the corresponding standard deviation.

MCF7 cells = assay: MTT assay cytotoxicity MCF7; settings: Homo sapiens, MCF7, 48 h, read-out: Cytotoxicity MCF7 IC50
Experimental: as §4, §5

MDA-MB-231 cells = assay: MTT assay cytotoxicity MDA-MB-231; settings: Homo sapiens, MDA-MB-231, 48 h, read-out: Cytotoxicity MDA-MB-231 IC50
Experimental: as §4, §5

Jurkat cells [3] = assay: Cell cycle assay (flow cytometry); assay type: cell-based, human
Experimental: Vybrant® DyeCycle™ Orange Stain was used for the cell cycle assay. The amount of fluorescence of DNA was used as a relative measure of a cell's stage in the cell cycle. 500,000 Jurkat cells were added to wells on a 24 well microtiter plate in 1 mL of supplemented RPMI media. The cells were then treated with Compound 1 (TABLE 2). Using the cells treated for 12 and 24 hours, stained DNA fluorescence was measured via flow cytometry. The cells were taken from each well, pelleted briefly, aspirated, resuspended in 300 μL of 2 μL/mL Vybrant® DyeCycle™ Orange Stain, incubated at 37° C. for 15 minutes, and analyzed by flow cytometry. Selecting whole cells based on forward and side scatter, stained DNA fluorescence was excited at 488 nm and measured at an emission wavelength of 585 nm, using amount of fluorescence as a means of distinguishing between populations of cells. Populations were identified as G1 for the peak associated with the lowest amount of fluorescence, S phase for increased fluorescence appearing as a shoulder off of the G1 peak, and G2/M for approximately 2 times the fluorescence as the G1 peak. Measurements were taken in biological triplicate and confirmed in technical triplicate.

[4] = tested on: ubiquitinated proteins in MCF7 cells; assay: Western blot of ubiquitinated proteins; assay type: cell-based, human
Experimental: The cells were incubated for 9.5 hrs at 37° C. and 5% CO2. After washing with PBS twice, cells were scraped, pelleted and lysed with CytoBuster™ Protein Extraction Reagent \ containing 10 μM compound 8, 10 μM Na3VO4, 0.017 mg/mL Aprotinin, 1 mM PMSF, and 1% Protease Inhibitor Cocktail. Thereafter 30 μg of protein in sample buffer (50 mM Tris-HCl, 2% SDS, 10% Glycerol, 1% β-mercaptoethanol, 12.5 mM EDTA, 0.02% Bromophenol Blue, pH 6.8) that had been boiled at 90° C. for 5 min, was electrophoresed using 6/8% SDS-PAGE, and the protein transferred to a […] PVDF membrane using a BioRad Trans-Blot® SD at 15 V for 17 minutes. The membrane was blocked with 1× casein buffer (Diluted 1:10 in water from casein blocking buffer 10×), and probed with either the polyclonal rabbit anti β-Actin (1:500) or the polyclonal rabbit anti-ubiquitin antibody (1:300), and stained with goat anti-rabbit IgG (H+L) HRP conjugate (1:3000) secondary antibodies. Antibody-recognized bands were visualized by a standard horseradish peroxidase chemiluminescent assay with an ECL kit.

[5] = target: T3, yeast proteasome yβ5 subunit (Saccharomyces cerevisiae, UniProt P23724+P30656); assay: Subunit selectivity, purified yeast proteasome yβ5; assay type: biochemical; settings: 8 μg/mL purified yCP; ± SD; read-out: yβ5 IC50
T3 construct: measured using 8 μg/mL of purified yCP or iCP
Experimental: as §1, §2

[6] = target: T4, trypsin-like activity of the 26S proteasome (Homo sapiens, UniProt Q99436); assay: Proteasome assay, trypsin-like (T-L) activity, SUC-RLR-AMC, Jurkat cell lysate; assay type: biochemical
T4 construct: endogenous in cells; host or cells: Jurkat (ATCC TIB-152, E6-1 clone) cell lysate
T4 sequence (Q99436 44-277): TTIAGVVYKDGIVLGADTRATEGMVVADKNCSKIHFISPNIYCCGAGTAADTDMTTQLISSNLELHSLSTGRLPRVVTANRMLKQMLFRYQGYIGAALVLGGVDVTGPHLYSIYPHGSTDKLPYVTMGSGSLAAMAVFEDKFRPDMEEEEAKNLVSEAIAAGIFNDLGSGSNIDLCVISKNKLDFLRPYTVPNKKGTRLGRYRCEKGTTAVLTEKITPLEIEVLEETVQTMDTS
Experimental: (§3) The lysate was stored at −80° C. until the sample was used for the proteasome assay.
as §1

[7] = target: T5, chymotrypsin-like activity of the 26S proteasome (Homo sapiens, UniProt P28074); assay: Proteasome assay, chymotrypsin-like (ChT-L) activity, Suc-LLVY-AMC, Jurkat cell lysate; assay type: biochemical; settings: ± S.D., read-out: Proteasome Inhibition ChT-like IC50
T5 construct: endogenous in cells; host or cells: Jurkat (ATCC TIB-152, E6-1 clone) cell lysate
T5 sequence (P28074 60-263): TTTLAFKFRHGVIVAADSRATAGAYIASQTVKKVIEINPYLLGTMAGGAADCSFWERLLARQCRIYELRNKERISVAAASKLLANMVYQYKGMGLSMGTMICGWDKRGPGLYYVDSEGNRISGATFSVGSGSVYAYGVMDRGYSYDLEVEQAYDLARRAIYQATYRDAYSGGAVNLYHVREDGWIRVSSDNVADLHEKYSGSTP
Experimental: as §3, §1

Jurkat cells [8] = assay: Apoptosis assay (Annexin V-FITC, flow cytometry); assay type: cell-based, human
Experimental: Apoptosis assay: 1 mL of Jurkat cells, at a density of 500,000 cells per milliliter, was added to 12 wells of a 24 well microtiter plate. Cells were treated immediately using a serial dilution of the synthesized proteasome inhibitors, the benzyl ester of Cystargolide B and the belactosin-cystargolide hybrid molecule. 10 μM Paclitaxel and 0.2 μg/mL Doxorubicin hydrochloride were used as positive apoptosis controls and non-treated cells were used as a negative control. The cells were then incubated for 24 h at 37° C. and 5% CO2. The following day, Annexin V-FITC conjugate was used to assay for the expression of phosphatidyl serine on the […] of the cellular membrane. The cells were briefly pelleted, aspirated, and resuspended in 300 μL of a reaction mixture containing 0.2 μL/mL of the Annexin V FITC solution, 2 mM CaCl2 to enable binding, and 2 μg/mL propidium iodide as an indicator of cell permeability. Each sample was incubated at 37° C. for 20 minutes, and then analyzed by flow cytometry. Single, whole cells were selected based on the forward and the side-scatter. With an excitation of 488 nm Annexin V-FITC binding was identified using FL1 533 nm emission. Propidium iodide staining was selected based on FL2 585 nm emission. […] Measurements were taken in biological triplicate for each sample, and the results were confirmed in technical triplicate.

[9] = target: T6, yeast proteasome yβ1 subunit (Saccharomyces cerevisiae, UniProt P25043+P38624); assay: Subunit selectivity, purified yeast proteasome yβ1; assay type: biochemical; settings: 8 μg/mL purified yCP; ± SD; read-out: yβ1 IC50
T6 construct: measured using 8 μg/mL of purified yCP or iCP
Experimental: as §1, §2

[10] = target: T7, ChT-L activity of 26S proteasomes in intact MCF-7 cells (Homo sapiens, UniProt P28074); assay: Cell infiltration of PIs: proteasome inhibition in intact MCF7 cells; assay type: cell-based; settings: intact versus lysed MCF-7 cells, 1 h
T7 construct: endogenous in cells; host or cells: MCF7 cells (treated intact, then lysed)
T7 sequence (P28074 60-263): T5 sequence (P28074 60-263)
Experimental: 100 μL MCF7 cells at a concentration of 500,000 cells/mL were added to a 96 well microtiter plate and incubated overnight at 37° C. and 5% CO2 to allow cells to adhere at 100% confluency. The cells were treated and then incubated for at 37° C. and 5% CO2 for 1 hour as a standard time to allow for drug infiltration. […] The plate was rocked on ice for 1 hr and then 90 μL of cell lysate was transferred to a black 96 well microtiter plate. 10 μL of lysis buffer was added to the top of all wells containing treated cells and one set of control wells. 10 μL of 1 mM of compound 8 was added to the second set of control wells as a positive control for proteasome inhibition. The plate was then incubated at 37° C. for 15 minutes to allow for control drug binding. Chymotrypsin-like activity was then measured by adding 10 μL of 100 μM Suc-LLVY-AMC in lysis buffer to each well and then incubating for 1 h at 37° C. […] Standard deviation for cell infiltration was calculated by propagating the error from the two IC50 values.
The difference between proteasome inhibition within intact versus lysed cells was evaluated as a representative measure of PIs ability to infiltrate cells and access intracellular proteasomes. […] Assays were performed in biological triplicate, and the data points are reported with the corresponding standard deviations. […]

[11] = tested on: cancer cells (MCF7, MDA-MB-231, RPMI 8226); assay: MTT cytotoxicity, cell line not given
[12] = Table 2, P1 analogues, ± S.D., read-out: Proteasome Inhibition T-L-like IC50

cellular infiltration / ability to inhibit intracellular proteasomes (in words) [10] | SMILES | IC50 [1] | IC50 [2] | IC50 (RPMI 8226 cells) | IC50 (MCF7 cells) | IC50 (MDA-MB-231 cells) | cell cycle arrest (Jurkat cells [3]) | accumulation of ubiquitinated proteins [4] | IC50 [5] | IC50 [6, 12] | IC50 ([7]; Table 2, P1 analogues) | induction of apoptosis (Jurkat cells [8]) | IC50 [9] | concentration up to which complete cytotoxicity was not achieved [11] | IC50 [6] | IC50 ([7]; Table 3, P2/P3 analogues)
 | CC(C)[C@H](NC(=O)[C@@H]1OC(=O)[C@H]1C(C)C)C(=O)N[C@H](C(=O)OCc1ccccc1)C(C)C [Compound 1] | 44.7 ± 12.8 nM | 14600 ± 910 nM | 1310 ± 745 nM | 8090 ± 4270 nM | 2790 ± 464 nM | cell cycle arrest in the G2/M phase | accumulation of ubiquitinated proteins | 37.2 ± 4.5 nM | 1950 ± 901 nM | 8.9 ± 6.2 nM | induction of apoptosis | 4180 ± 438 nM |  |  | 
lowest performance | CC(C)[C@H](NC(=O)[C@@H]1OC(=O)[C@H]1C1CC1)C(=O)N[C@H](C(=O)OCc1ccccc1)C(C)C [Compound 9a, Benzyl ((2R,3S)-3-cyclopropyl-4-oxooxetane-2-carbonyl)-L-valyl-L-valinate] |  |  | 72000 ± 13800 nM | > 100000 nM | > 100000 nM |  |  |  | 2480 ± 433 nM | 12.2 ± 5.6 nM |  |  |  |  | 
 | CC[C@H](C)[C@@H]1C(=O)O[C@H]1C(=O)NCC(=O)N[C@H](C(=O)OCc1ccccc1)C(C)C [Compound 10a, Benzyl ((2R,3S)-3-((S)-sec-butyl)-4-oxooxetane-2-carbonyl)glycyl-L-valinate] |  |  | 840 ± 429 nM | ~4000 nM | 952 ± 262 nM |  |  |  |  |  |  |  | > 100 µM | 256 ± 72 nM | 3.8 ± 1.4 nM
